From ChEMBL document CHEMBL1141429, “Ecdysteroids from the Antarctic tunicate Synoicum adareanum” (J Nat Prod, 2007)

Experiments:
[1] = system: HCT-116; experiment: Cytotoxicity against human HCT116 cells after 3 days by disk diffusion assay; format: functional, cell-based; conditions: for IC50: HCT-116, 72 h
[2] = system: L1210; experiment: Cytotoxicity against […] cells after 3 days by disk diffusion assay; format: functional, cell-based
[3] = system: CCRF-CEM; experiment: Cytotoxicity against human CCRF-CEM cells after 3 days by disk diffusion assay; format: functional, cell-based
[4] = system: H125M; experiment: Cytotoxicity against human H125M cells after 3 days by disk diffusion assay; format: functional, cell-based
[5] = Cytotoxicity against human CFU-GM cells after 3 days by disk diffusion assay; format: cell-based; conditions: 72 h

| Compound | IC50 [1] [µM] | Activity [2] | Activity [3] | Activity [4] | Activity [1] | Activity [5] |
| --- | --- | --- | --- | --- | --- | --- |
| C[C@H](CCC(C)(C)O)[C@H]1CCC(=O)[C@]23CC(=O)C4=C[C@H](O)[C@H](O)C[C@]4(C)[C@H]2CC[C@]13C [ABEOHYOUSTERONE] | 3 |  |  |  |  |  |
| C[C@H](CCCC(C)(C)O)[C@H]1CC[C@H]2C3=CC(=O)C4=C[C@H](O)[C@H](O)C[C@]4(C)[C@H]3CC[C@]12C [DIAULUSTEROL B] |  | Not toxic | Not toxic | Not toxic | Not toxic | Non-toxic |
| C[C@H](CCCC(C)(C)O)[C@H]1CC[C@@]2(O)C3=CC(=O)C4=C[C@H](O)[C@H](O)C[C@]4(C)[C@H]3CC[C@]12C [HYOUSTERONE A] | 10.7 |  |  |  |  |  |
| C[C@H](CCCC(C)(C)O)[C@H]1CC[C@]2(O)C3=CC(=O)C4=C[C@H](O)[C@H](O)C[C@]4(C)[C@H]3CC[C@]12C [HYOUSTERONE B] |  | Not toxic | Not toxic | Not toxic | Not toxic | Non-toxic |
| C[C@H](CCCC(C)(C)O)[C@H]1CC[C@@]2(O)C3=CC(=O)C4=C[C@H](O)[C@H](O)C[C@]4(C)[C@@]3(O)CC[C@]12C [HYOUSTERONE C] | 3.7 |  |  |  |  |  |
| C[C@H](CCCC(C)(C)O)[C@H]1CC[C@]2(O)C3=CC(=O)C4=C[C@H](O)[C@H](O)C[C@]4(C)[C@@]3(O)CC[C@]12C [HYOUSTERONE D] |  | Not toxic | Not toxic | Not toxic | Not toxic | Non-toxic |
